In patent US20020197244A1, “Compositions and methods for regulating phagocytosis and ICAM-1 expression” (priority 1998, published 2002):

B1: STI: Soybean trypsin inhibitor, a serine protease inhibitor capable of affecting the PAR-2 pathway (protein, UniProt P01070 25-205, looked up)
Trypsin inhibitor A: DFVLDNEGNPLENGGTYYILSDITAFGGIRAAPTGNERCPLTVVQSRNELDKGIGTIISSPYRIRFIAEGHPLSLKFDSFAVIMLCVGIPTEWSVVEDLPEGPAVKIGENKDAMDGWFRLERVSDDEFNNYKLVFCPQQAEDDKCGDIGISIDHDDGTRRLVVSKNKPLVVQFQKLDKESL

Columns and labels:
[1] = test system: Keratinocytes; assay: Scanning electron microscopy of keratinocyte podia; type: cell-based; details: treated two days; vs vehicle-treated controls; FIG. 8
Experimental: PAR-2 Effect on Phagocytosis and Migration Relates to Changes in Cell Shape Both phagocytosis and cell migration involve changes in cell shape. Therefore, the effect of the PAR-2 pathway reagents on cell podia were studied using scanning electron microscopy. Keratinocytes were treated with Compound I (identified as “SH00230”), SLIGRL and a buffer vehicle for two days, and then processed for SEM using standard techniques. […] In other words, the cells' “fingers” are shorter and malformed, so they cannot grasp objects as well as can the control cells. […] In other words, these cells have a greater probability for productive interaction with particles. Comparing these SEM pictures in FIG. 8, it is clear that SLIGRL-treated cells have a greater ability to interact with particles, while Compound I-treated cells are less suited for such a task.

[2] = test system: melanocytes; assay: Fluorescent microsphere ingestion by melanocytes; type: cell-based; details: which do not express PAR-2
[3] = test system: fibroblast cell line 92-3T3; assay: Fluorescent microsphere ingestion by fibroblasts; type: cell-based; details: vs untreated fibroblasts; FIG. 3
Experimental: In this example, human primary keratinocytes or the human keratinocyte cell line HaCaT were used as in vitro model systems to study the effect of PAR-2 regulators on keratinocyte phagocytosis. The human primary keratinocytes used are commercially available from Clonetics (San Diego, Calif.). Cells were plated on chamber slides, at 2 chambers/slide and 60,000 cells/chamber. Cells were treated once daily, for two or three days, with Compound I (1μM), SLIGRL (10μM), or vehicle (Phosphate-buffered saline, (“PBS”) from Gibco-BRL (Gaithersburg, Md.). After two or three days of exposure to the test compounds, cells were exposed to Nile-red or FITC fluorescent microspheres, 1 μm in diameter, 50 microspheres/cell, for two hours at 37° C. Microspheres were from Molecular Probes (Eugene, Oreg.), and were processed according to manufacturer's instructions. Following that treatment, cells were incubated with 15% Fetal Bovine Serum (“FBS”, from Gibco-BRL), for 15 minutes at 37° C. and rinsed with PBS. At that time, chambers were separated from the slides, and the slides were covered with glycerol and coverslips. Fluorescent microscopy was performed using a Zeiss Axiovert 35 or a Nikon Optiphot-2 microscope.
The experiment described in Example 1 was repeated using the fibroblast cell line 92-3T3 (obtained from the ATCC in Rockville, Md.). Fibroblasts are not known to posses phagocytic ability.

[4] = test system: human age spots; assay: Lightening of human age spots, topical treatment; type: in vivo; details: STI, 1%, in liposomes (20 mg/ml), twice a day, 8 weeks
Experimental: An individual with three age spots on the dorsum of […] hand was treated for eight weeks, twice a day, as follows. The proximal age spot was treated with placebo, containing 20 mg/ml of liposomes. The median age spot was not treated. The distal age spot was treated with STI, 1%, in liposomes (20 mg/ml). GDL liposomes were prepared as set forth in Niemiec, et al., with the exception of the following changes. The non-ionic liposomal formulation contained glycerol dilaurate (Emulsynt GDL, ISP Van Dyk)/cholesterol (Croda)/polyoxyethylene-10-stearyl ether (Brij76, ICI)/polyoxyethylene-9-lauryl ether, as at ratio of 37.5:12.5:33.3:16.7. Hepes buffer, 0.05M, pH 7.4 (Gibco-BRL of Gaithersburg, Md.) was used as the aqueous phase in the preparation of the liposomes. UV and visible light digital pictures were taken at times of 0, 4 and 8 weeks of treatment. L* (brightness) values were calculated from the images using Adobe Photoshop.
FIG. 11 is a composite of four pictures. The left panel is a visible light picture of the hand, before (upper) and after (lower) 8 weeks of treatment. At this orientation, the proximal age spot is placebo-treated, the median age spot is untreated, and the distal age spot is STI-treated.

Row | Molecule | shape of cell podia [1] | microsphere ingestion [2] | number of ingested beads [3] | increase in L* (brightness) ([4]; calculated from images) | age spot appearance ([4]; one individual, FIG. 11)
1 | CN[C@H](Cc1ccccc1)C(=O)N1CCCC1C(=O)N[C@@H](CCCNC(=N)N)C(=O)c1nc2ccccc2s1 (stereo partly drawn) [Compound I, (S)-N-Methyl-D-phenylalanyl-N-[4-[(aminoiminomethyl)amino]-1-(2-benzothiazolylcarbonyl)butyl]-L-prolinamide] | dramatically shorter podia | – | – | – | –
2 | SLIGRL [reference compound] | podia were increased in number, were somewhat longer, and were much thinner | no inducible effect on microsphere ingestion | increased the number of ingested beads | – | –
3 | B1 | – | – | – | 15 L* units | became lighter
